Experimental data published in ChEMBL document CHEMBL5360523, “Ligand- and structure-based identification of novel CDK9 inhibitors for the potential treatment of leukemia” (Bioorg Med Chem, 2022).
The source made the active and inactive calls. The calls are words filed in the database; no cut-off is given here.

Assays:
MOLM-13 [1] = assay: Antiproliferative activity against human MOLM-13 cells assessed as inhibition of cell viability incubated for 48 hrs by CCK8 method; assay type: functional, cell-based; conditions: MOLM-13, 48 h
[2] = molecular target: T1, Cyclin-dependent kinase 9 (Homo sapiens, UniProt P50750); assay: Inhibition of CDK9 (unknown origin) at 20 uM incubated for 10 mins relative to control
T1 sequence (P50750 whole entry): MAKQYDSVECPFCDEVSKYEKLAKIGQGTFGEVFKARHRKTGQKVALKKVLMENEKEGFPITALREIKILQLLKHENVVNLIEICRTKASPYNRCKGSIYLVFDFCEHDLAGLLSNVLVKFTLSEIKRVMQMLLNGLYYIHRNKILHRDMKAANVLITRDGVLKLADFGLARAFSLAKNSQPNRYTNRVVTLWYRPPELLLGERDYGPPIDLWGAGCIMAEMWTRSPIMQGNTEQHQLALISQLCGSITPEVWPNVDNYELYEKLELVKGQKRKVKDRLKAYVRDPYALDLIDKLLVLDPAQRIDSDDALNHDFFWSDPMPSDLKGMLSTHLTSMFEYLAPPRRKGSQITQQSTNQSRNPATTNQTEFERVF

[3] = molecular target: T1, Cyclin-dependent kinase 9; assay: Inhibition of CDK9 (unknown origin) incubated for 10 mins
MDA-MB-231 = assay: Antiproliferative activity against human MDA-MB-231 cells assessed as inhibition of cell viability incubated for 48 hrs by CCK8 method; assay type: functional, cell-based; conditions: MDA-MB-231, 48 h
HeLa = assay: Antiproliferative activity against human HeLa cells assessed as inhibition of cell viability incubated for 48 hrs by CCK8 method; assay type: functional, cell-based
CNE-2 = assay: Antiproliferative activity against human CNE-2 cells assessed as inhibition of cell viability incubated for 48 hrs by CCK8 method; assay type: functional, cell-based; conditions: CNE-2, 48 h
A549 = assay: Antiproliferative activity against human A549 cells assessed as inhibition of cell viability incubated for 48 hrs by CCK8 method; assay type: functional, cell-based; conditions: A549, 48 h
MCF7 = assay: Antiproliferative activity against human MCF7 cells assessed as inhibition of cell viability incubated for 48 hrs by CCK8 method; assay type: functional, cell-based; conditions: MCF7, 48 h
HepG2 = assay: Antiproliferative activity against human HepG2 cells assessed as inhibition of cell viability incubated for 48 hrs by CCK8 method; assay type: functional, cell-based; conditions: HepG2, 48 h
HCT-116 = assay: Antiproliferative activity against human HCT-116 cells assessed as inhibition of cell viability incubated for 48 hrs by CCK8 method; assay type: functional, cell-based; conditions: HCT-116, 48 h
MOLM-13 [4] = assay: Induction of apoptosis in human MOLM-13 cells assessed as viable cells at 10 uM incubated for 24 hrs by Annexin V-FITC and propidium iodide staining based flow cytometry analysis (reference value: 92.7%); assay type: functional; conditions: read-out: Activity
MOLM-13 [5] = assay: Induction of apoptosis in human MOLM-13 cells assessed as early apoptotic cells at 10 uM incubated for 24 hrs by Annexin V-FITC and propidium iodide staining based flow cytometry analysis (reference value: 2.86%); assay type: functional
MOLM-13 [6] = assay: Induction of apoptosis in human MOLM-13 cells assessed as late apoptotic cells at 10 uM incubated for 24 hrs by Annexin V-FITC and propidium iodide staining based flow cytometry analysis (reference value: 3.65%); assay type: functional
MOLM-13 [7] = assay: Induction of apoptosis in human MOLM-13 cells assessed as necrotic cells at 10 uM incubated for 24 hrs by Annexin V-FITC and propidium iodide staining based flow cytometry analysis (reference value: 0.84%); assay type: functional
[8] = Stability in rat liver microsomes assessed as compound remaining measured upto 3 hrs by HPLC analysis; assay type: ADME, Microsome; conditions: read-out: Stability
[9] = Stability in human plasma assessed as compound remaining measured upto 4 hrs by HPLC analysis; assay type: ADME, cell-free; conditions: read-out: Stability
[10] = Stability of the compound in artificial gastric fluid assessed as compound remaining measured upto 8 hrs by HPLC analysis; assay type: ADME; conditions: read-out: Stability
[11] = Stability of the compound in artificial intestinal fluid assessed as compound remaining measured upto 8 hrs by HPLC analysis; assay type: ADME; conditions: read-out: Stability
[12] = molecular target: T1, Cyclin-dependent kinase 9; assay: Inhibition of CDK9 in human MOLM-13 cells assessed as suppression of p-RNAP II CTD (Ser2 residue) phosphorylation incubated for 24 hrs by Western blot analysis; assay type: cell-based; conditions: dose 10-25 µM
[13] = molecular target: T1, Cyclin-dependent kinase 9; assay: Inhibition of CDK9 in human MOLM-13 cells assessed as decrease in Mcl-1 expression incubated for 24 hrs by Western blot analysis; assay type: cell-based; conditions: dose 10-25 µM
[14] = molecular target: T1, Cyclin-dependent kinase 9; assay: Inhibition of CDK9 in human MOLM-13 cells assessed as increase in cleaved PARP level at 10 to 25 uM incubated for 24 hrs by Western blot analysis; assay type: cell-based; conditions: dose 10-25 µM
MOLM-13 [15] = assay: Induction of apoptosis in human MOLM-13 cells assessed as viable cells at 2.5 uM incubated for 24 hrs by Annexin V-FITC and propidium iodide staining based flow cytometry analysis (reference value: 92.7%); assay type: functional; conditions: read-out: Activity
MOLM-13 [16] = assay: Induction of apoptosis in human MOLM-13 cells assessed as viable cells at 5 uM incubated for 24 hrs by Annexin V-FITC and propidium iodide staining based flow cytometry analysis (reference value: 92.7%); assay type: functional; conditions: read-out: Activity
MOLM-13 [17] = assay: Induction of apoptosis in human MOLM-13 cells assessed as early apoptotic cells at 2.5 uM incubated for 24 hrs by Annexin V-FITC and propidium iodide staining based flow cytometry analysis (reference value: 2.86%); assay type: functional
MOLM-13 [18] = assay: Induction of apoptosis in human MOLM-13 cells assessed as early apoptotic cells at 5 uM incubated for 24 hrs by Annexin V-FITC and propidium iodide staining based flow cytometry analysis (reference value: 2.86%); assay type: functional
MOLM-13 [19] = assay: Induction of apoptosis in human MOLM-13 cells assessed as late apoptotic cells at 2.5 uM incubated for 24 hrs by Annexin V-FITC and propidium iodide staining based flow cytometry analysis (reference value: 3.65%); assay type: functional
MOLM-13 [20] = assay: Induction of apoptosis in human MOLM-13 cells assessed as late apoptotic cells at 5 uM incubated for 24 hrs by Annexin V-FITC and propidium iodide staining based flow cytometry analysis (reference value: 3.65%); assay type: functional
MOLM-13 [21] = assay: Induction of apoptosis in human MOLM-13 cells assessed as necrotic cells at 2.5 uM incubated for 24 hrs by Annexin V-FITC and propidium iodide staining based flow cytometry analysis (reference value: 0.84%); assay type: functional
MOLM-13 [22] = assay: Induction of apoptosis in human MOLM-13 cells assessed as necrotic cells at 5 uM incubated for 24 hrs by Annexin V-FITC and propidium iodide staining based flow cytometry analysis (reference value: 0.84%); assay type: functional
MOLM-13 [23] = assay: Induction of apoptosis in human MOLM-13 cells incubated for 24 hrs by Annexin V-FITC and propidium iodide staining based flow cytometry analysis; assay type: functional, cell-based; conditions: dose 2.5-10 µM

Compound	IC50 (MOLM-13 [1]) [µM]	inhibition [2] [%]	IC50 [3] [µM]	IC50 (MDA-MB-231) [µM]	IC50 (HeLa) [µM]	IC50 (CNE-2) [µM]	IC50 (A549) [µM]	IC50 (MCF7) [µM]	IC50 (HepG2) [µM]	IC50 (HCT-116) [µM]	remaining at 3 h [8] [%]	remaining at 4 h [9] [%]	remaining at 8 h [10] [%]	remaining at 8 h [11] [%]	other results
CCCCNc1nc(N)nc(-c2cc(Cl)ccc2O)n1	13.5	93.6	0.214	16	13.7	17	19.2	11.3	40.9	27.2	–	–	–	–	–
O=C(NCCc1c[nH]c2ccc(Cl)cc12)c1cc(-c2cccnc2)n[nH]1	2.52	22.7	–	28.2	29.4	17.1	> 50	20.9	19.8	15.6	–	–	–	–	–
CN1CC[C@H](c2c(O)cc(O)c3c(=O)cc(-c4ccccc4Cl)oc23)[C@H](O)C1 [ALVOCIDIB]	0.07	–	–	0.06	0.15	0.12	0.1	0.71	0.56	0.03	–	–	–	–	viability at 10 µM (MOLM-13 [4]): 44.5%; Activity (MOLM-13 [5]): 25.5%; Activity (MOLM-13 [6]): 7.81%; Activity (MOLM-13 [7]): 22.3%
Nc1nc(NCCc2ccccc2)nc(-c2cc(Cl)ccc2O)n1	4.58	92.2	0.504	14.5	25.1	> 50	28.2	29	29	> 50	> 90	> 90	> 90	> 90	–
Nc1nc(Nc2ccccc2)nc(-c2cc(Cl)ccc2O)n1	3.92	88.4	0.295	11.7	2.53	34.5	> 50	23.5	> 50	22.2	> 90	> 90	> 90	> 90	inhibition [12]: Dose-Dependent Effect; inhibition [13]: Dose-Dependent Effect; inhibition [14]: Active; viability at 2.5 µM (MOLM-13 [15]): 92.1%; viability at 5 µM (MOLM-13 [16]): 90.9%; viability at 10 µM (MOLM-13 [4]): 87.1%; Activity (MOLM-13 [17]): 3.2%; Activity (MOLM-13 [18]): 3.97%; Activity (MOLM-13 [5]): 6.13%; Activity (MOLM-13 [19]): 3.88%; Activity (MOLM-13 [20]): 3.96%; Activity (MOLM-13 [6]): 5.43%; Activity (MOLM-13 [21]): 0.77%; Activity (MOLM-13 [22]): 1.12%; Activity (MOLM-13 [7]): 1.38%; Activity (MOLM-13 [23]): Dose-Dependent Effect
O=C(Cn1cc(Br)c(=O)n(CC(=O)Nc2ccc(Br)cn2)c1=O)Nc1ccc(Br)cn1	11.8	76.4	0.219	8.34	6.61	28.3	15.3	6.14	> 50	3.22	> 90	> 90	> 90	> 90	–
CCNc1nc(N)nc(-c2cc(Cl)ccc2O)n1	15.2	93.7	0.335	21.2	7.38	30.4	> 50	18.9	49.2	26.6	–	–	–	–	–
